Here are results for 15 compounds from US20250099482A1, “TIP60 NEURO-EPIGENETIC MODULATORS” (Drexel University, priority 2023, published 2025).

The subject of assay [1] is Drosophila Tip60 knockdown model. As to the kind of experiment: In vivo larval locomotor speed assay in Tip60-RNAi knockdown model. As to conditions: Tip60-RNAi larvae, compound in fly food, vs DMSO vehicle; for rescue of locomotor ability (larval speed): 10 nM to 100 μM.
The target in assay [2] is T1, Tip60 (Homo sapiens, UniProt Q92993).
T1 construct: purchased Active Motif 81975
T1 sequence (Q92993 whole entry): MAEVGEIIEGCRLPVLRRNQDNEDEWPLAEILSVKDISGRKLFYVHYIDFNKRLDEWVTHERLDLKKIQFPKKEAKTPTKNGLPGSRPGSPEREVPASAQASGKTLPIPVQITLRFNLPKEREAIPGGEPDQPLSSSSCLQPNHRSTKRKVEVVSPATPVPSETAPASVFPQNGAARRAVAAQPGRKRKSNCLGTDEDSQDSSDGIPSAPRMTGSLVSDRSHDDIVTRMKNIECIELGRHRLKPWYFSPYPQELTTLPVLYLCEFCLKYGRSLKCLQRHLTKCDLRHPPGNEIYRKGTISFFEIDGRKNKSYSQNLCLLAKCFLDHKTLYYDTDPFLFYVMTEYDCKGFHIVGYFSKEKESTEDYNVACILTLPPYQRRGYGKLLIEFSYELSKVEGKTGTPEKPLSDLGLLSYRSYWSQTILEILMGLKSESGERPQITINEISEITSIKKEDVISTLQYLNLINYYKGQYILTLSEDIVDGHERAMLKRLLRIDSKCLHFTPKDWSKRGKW
As to the kind of experiment: In vitro histone acetylation activity assay (Tip60). The class given is biochemical. As to conditions: for effect on Tip60's HAT activity (Histone H4 acetylation, fluorescence): 20 μM compound, vs Tip60+DMSO. As for the experimental part: HAT assays were performed according to manufacturer's instructions in HAT Assay Kit (Active Motif 56100). Briefly, 375 ng Tip60 protein (Active motif: 81975) was incubated with 50 μM Histone H4 peptide, 50 μM Acetyl-CoA and indicated drug concentrations for 30 minutes at room temperature. After stopping the reaction and developing free sulfhydryl groups, […] was recorded at excitation 360-390 nm and emission 460-490 nm using Glomax fluorescence microplate reader. Specific enzyme activity (pmol/min/μg) was calculated by 1. Subtracting background fluorescence from that of assay samples to obtain arbitrary fluorescence units (AFU); and (2) Dividing the difference by the incubation time to obtain AFU/minute. 3. Dividing the AFU/minute by the slope of standard curve in AFU/pmol to obtain the rate in pmol/minute. 4. Dividing pmol/min by the amount of enzyme used to obtain final readings in pmol/minute/μg.

Assay [3] addresses T2, GST-Tip60 protein (Homo sapiens, UniProt Q92993).
T2 construct: purchased Abcam ab2686960
The assay is described as follows: In vitro surface plasma resonance (SPR) Tip60-compound binding. Particulars: for Corrected Response: DMSO corrected. As for the experimental part:
SPR protein-compound binding interactions were analyzed on Biacore 3000 biosensor (Global Cytiva Lifesciences) at 25° C. PBS-P (10 mM Phosphate, 150 mM NaCl, pH 7.4, 0.005% P-20) was used as the running buffer and a HAT-optimized binding buffer (50 mM HEPES, pH 7.4, 500 mM NaCl, 0.05% [v/v] Tween 20, 5 mM DTT, 10% [w/v] glycerol, 2% [v/v] DMSO) was used. A CM5 sensor chip was docked and derivatized by amine coupling to capture anti-GST antibody using freshly prepared 1:1 50 mM NHS (N-hydroxysuccinamide): 200 mM EDC (1-ethyl-3-(3-(dimethylamino) propyl) carbodiimide) followed by immobilization of GST-Tip60 protein (Abcam: ab2686960). Direct binding was determined by injecting ligands in duplicates at concentrations spanning 0.0078 μM to 50 μM with running buffer injections in between. DMSO corrections were performed as described previously. The corrected responses were transformed into % bound sites and plotted against the compound concentration. The concentration of Tip60 on the surface was estimated using [Tip60]=response (captured RU)/100*MW. To plot the % bound isotherm as a function of concentration, it is assumed that binding is 1:1 and the following equation is used: % A bound to B is 100AB/Bt=[Kd+At+Bt-SQRT((Kd+At+Bt)2−4*At*Bt)]/(2*Bt) where A=C and B=Tip60.

T2 sequence (Q92993 whole entry): as above

`CCOCC[C@H](O)COc1ccccc1C(=O)Nc1ccc(Cl)c(C(F)(F)F)c1` [Compound C9, (S)-N-(4-chloro-3-(trifluoromethyl)phenyl)-2-(4-ethoxy-2-hydroxybutoxy)benzamide]: the “rescue of locomotor defects (larval speed), performance as compared to CTB” value (from here on “rescue of locomotor defects … compared to CTB”) in assay [1] is on record as “low-performing compounds”.
The same measure, in the same setting: under `CC(C)Oc1ccccc1C(=O)Nc1ccc(Cl)c(C(F)(F)F)c1` [Compound C6, N-(4-chloro-3-(trifluoromethyl)phenyl)-2-isopropoxybenzamide] stands “low-performing compounds”.
On to `COc1ccc(NCc2c(OCc3ccc(F)cc3)ccc3ccccc23)cc1Cl` [Compound P9, 3-chloro-N-((2-((4-fluorobenzyl)oxy)naphthalen-1-yl)methyl)-4-methoxyaniline], for which the “effect on Tip60's HAT activity (Histone H4 acetylation, fluorescence)” value in assay [2] is listed as “enhanced Tip60's HAT activity”.
On to `O=C(Nc1ccc(Cl)c(C(F)(F)F)c1)c1ccccc1OC[C@H]1CCCO1` [Compound C3, (R)-N-(4-chloro-3-(trifluoromethyl)phenyl)-2-((tetrahydrofuran-2-yl)methoxy)benzamide], for which the “rescue of locomotor defects … compared to CTB” value in assay [1] is “low-performing compounds”.
In the case of `CCOc1ccccc1C(=O)Nc1ccc(Cl)c(C(F)(F)F)c1` [CTB, N-(4-chloro-3-(trifluoromethyl)phenyl)-2-ethoxybenzamide], the “% Bound sites” value in assay [3] (0.0078 μM) is recorded as 0.05241%; in assay [3] (0.023 μM), 0.04999%; in assay [3] (0.07 μM), 0.04921%; in assay [3] (0.21 μM), 0.04955%; in assay [3] (0.63 μM) it was 0.0526%; in assay [3] (1.85 μM) it was 0.05923%. Moreover, the “% Bound sites” value in assay [3] (5.56 μM) was 0.07928%; in assay [3] (17 μM), 0.1511%; in assay [3] (50 μM) it was 0.4056%. Further, the Subtracted response in assay [3] (0.0078 μM) turned out to be 8.34; in assay [3] (0.023 μM), 7.955; in assay [3] (0.07 μM), 7.83; in assay [3] (0.21 μM) it was 7.885; in assay [3] (0.63 μM), 8.37; in assay [3] (1.85 μM) it was 9.425. The Subtracted response in assay [3] (5.56 μM) came to 12.615; in assay [3] (17 μM), 24.05; in assay [3] (50 μM), 64.54. In addition, the “Corrected Response” value was 0.1326 in assay [3] (0.0078 μM); 0.1265 in assay [3] (0.023 μM); 0.1245 in assay [3] (0.07 μM); 0.1254 in assay [3] (0.21 μM); 0.1331 in assay [3] (0.63 μM); 0.1499 in assay [3] (1.85 μM). In addition, the “Corrected Response” value is recorded as 0.2006 in assay [3] (5.56 μM), 0.3824 in assay [3] (17 μM) and 1.026 in assay [3] (50 μM). Besides, the Kd in assay [3] (SPR, 25° C., read-out: KD (dissociation constant)) was found to be 28.6 µM. Further, the “rescue of locomotor ability (larval speed)” value in assay [1] is given as “significant rescue for locomotor ability”. Besides, the “effect on Tip60's HAT activity” value in assay [2] (CTB, low micromolar concentrations) was “directly enhance Tip60's HAT activity”.
Consider `CCOc1cccc(OCCN(C)C)c1C(=O)Nc1ccc(Cl)c(C(F)(F)F)c1` [Compound C5, N-(4-chloro-3-(trifluoromethyl)phenyl)-2-(2-(dimethylamino)ethoxy)-6-ethoxybenzamide], for which, in assay [1], the “rescue of locomotor defects … compared to CTB” value is on record as “highest performers”.
`O=C(Nc1ccc(Cl)c(C(F)(F)F)c1)c1ccccc1OC[C@@H]1CCCS1(=O)=O` [Compound C7, (S)-N-(4-chloro-3-(trifluoromethyl)phenyl)-2-((1,1-dioxidotetrahydrothiophen-2-yl)methoxy)benzamide]: the “rescue of locomotor defects … compared to CTB” value in assay [1] is “low-performing compounds”.
The same measure, in the same setting: to `CCOCC[C@@H](O)COc1ccccc1C(=O)Nc1ccc(Cl)c(C(F)(F)F)c1` [Compound C10, (R)-N-(4-chloro-3-(trifluoromethyl)phenyl)-2-(4-ethoxy-2-hydroxybutoxy)benzamide] belongs “low-performing compounds”.
As to `CCOc1ccccc1C(=O)Nc1ccc(Cl)c(C(F)(F)F)c1` [Compound C1, N-(4-chloro-3-(trifluoromethyl)phenyl)-2-ethoxybenzamide], the “rescue of locomotor defects … compared to CTB” value in assay [1] is “low-performing compounds”.
`O=C(NCc1ccccc1Cn1cncn1)c1cn(Cc2ccccc2)c2ccccc12` [Compound P11, N-(2-((1H-1,2,4-triazol-1-yl)methyl)benzyl)-1-benzyl-1H-indole-3-carboxamide]: the “effect on Tip60's HAT activity (Histone H4 acetylation, fluorescence)” value in assay [2] is “enhanced Tip60's HAT activity”.
On to `O=C(Nc1ccc(Cl)c(C(F)(F)F)c1)c1ccccc1OCC(=O)N1CCOCC1` [Compound C4, N-(4-chloro-3-(trifluoromethyl)phenyl)-2-(2-morpholino-2-oxoethoxy)benzamide], for which the “rescue of locomotor defects … compared to CTB” value in assay [1] is given as “did not show an effect even at high concentrations”.
Regarding `O=C(Nc1ccc(Cl)c(C(F)(F)F)c1)c1ccccc1OC[C@@H]1CCCO1` [Compound C2, (S)-N-(4-chloro-3-(trifluoromethyl)phenyl)-2-((tetrahydrofuran-2-yl)methoxy)benzamide], the “rescue of locomotor defects … compared to CTB” value in assay [1] is recorded as “highest performers”.
Consider `CCCCCCCCCCCCCCCc1cccc(OCC)c1C(=O)Nc1ccc(Cl)c(C(F)(F)F)c1` [CTPB, N-(4-chloro-3-(trifluoromethyl)phenyl)-2-ethoxy-6-pentadecylbenzamide], for which the Subtracted response in assay [3] (0.0078 μM) amounted to 8.525; in assay [3] (0.023 μM) it was 8.62; in assay [3] (0.07 μM) it was 8.545; in assay [3] (0.21 μM), 8.575; in assay [3] (0.63 μM), 8.99; in assay [3] (1.85 μM) it was 10.085. For the same compound, the Subtracted response in assay [3] (5.56 μM) is 13.355; in assay [3] (17 μM), 25.005; in assay [3] (50 μM) it was 66.335. For the same compound, the “Corrected Response” value in assay [3] (0.0078 μM) turned out to be 0.1381; in assay [3] (0.023 μM), 0.1396; in assay [3] (0.07 μM), 0.1384; in assay [3] (0.21 μM) it was 0.1389; in assay [3] (0.63 μM), 0.1456; in assay [3] (1.85 μM), 0.1634. In addition, the “Corrected Response” value stood at 0.2164 in assay [3] (5.56 μM), 0.4051 in assay [3] (17 μM) and 1.075 in assay [3] (50 μM). The “rescue of locomotor ability (larval speed)” value in assay [1] was “significant rescue for locomotor ability”.
In the case of `O=C(Nc1ccc(Cl)c(C(F)(F)F)c1)c1ccccc1OC[C@H]1CCCS1(=O)=O` [Compound C8, (R)-N-(4-chloro-3-(trifluoromethyl)phenyl)-2-((1,1-dioxidotetrahydrothiophen-2-yl)methoxy)benzamide], the “rescue of locomotor defects … compared to CTB” value in assay [1] is listed as “highest performers”.
Regarding `Cc1cc(-c2ccccc2)cc(C(=O)NNS(=O)(=O)c2ccccc2)c1F` [WM8014, N′-(4-fluoro-5-methyl-[1,1′-bipheny1]-3-carbonyl)benzenesulfonohydrazide], the Subtracted response in assay [3] (0.0078 μM) worked out at 8.58; in assay [3] (0.023 μM) it was 7.78; in assay [3] (0.07 μM) it was 7.42; in assay [3] (0.21 μM) it was 7.24; in assay [3] (0.63 μM), 7.51; in assay [3] (1.85 μM) it was 8.17. The Subtracted response in assay [3] (5.56 μM) worked out at 11.34; in assay [3] (17 μM) it was 22.255; in assay [3] (50 μM) it was 61.705. Besides, the “Corrected Response” value in assay [3] (0.0078 μM) stood at 0.127; in assay [3] (0.023 μM), 0.1151; in assay [3] (0.07 μM) it was 0.1098; in assay [3] (0.21 μM) it was 0.1072; in assay [3] (0.63 μM), 0.1111; in assay [3] (1.85 μM), 0.1209. The “Corrected Response” value stood at 0.1678 in assay [3] (5.56 μM), 0.3294 in assay [3] (17 μM) and 0.9132 in assay [3] (50 μM).

The term Kd denotes a measure of binding affinity in units of concentration.
